Patent publication US20240366599A1, “HUMAN EFFICACIOUS DOSE AND DOSAGE SCHEDULE OF SPR720” (SPERO THERAPEUTICS, INC., priority 2021, published 2024)

Legend:
Type in all cases: in vivo, human
[1] = Single ascending dose (SAD) study: safety and tolerability
Method: (§1) The following study was conducted in healthy volunteers to evaluate the safety, tolerability, and pharmacokinetics of SPR720/SPR719. The study included 7 SAD cohorts, of which one was a food effect cohort. SPR720 or placebo (n=8/cohort, 3:1 randomization) were administered to subjects at doses of 100 to 2000 mg in the fasted or fed state. The cohorts administered SPR720 in the fed state were administered 1000 mg or 500 mg (healthy elderly cohort) SPR720. A schematic of the study design appears in FIG. 1.

[2] = Single ascending dose (SAD) study: pharmacokinetics of SPR719 after oral SPR720; settings: SPR720 1000 mg, fed vs fasted; considered non-clinically significant
Method: as §1

[3] = Multiple ascending dose (MAD) study: safety and tolerability
Method: The multiple ascending dose study utilized 5 cohorts of 8 subjects. Three cohorts were administered a total daily dose of 500 mg to 1500 mg in the fasted state for 7 days. Two cohorts were administered a total daily dose of 500 mg or 1000 mg in the fed state for 14 days. Safety was also monitored throughout the study. […] This conclusion was further supported by stable SPR719 trough concentrations by Day 7 (data not shown). Mean plasma concentration/time curves are shown for the MAD cohorts at days 1 (FIG. 3A), 7 (FIG. 3B), and 14 (FIG. 3C). 2.

[4] = SAD Cohort 4, 1000 mg Fasted, N=6
[5] = MAD Cohort 1, 500 mg 7 days, fasted, N=6
[6] = MAD Cohort 2, 1000 mg 7 days, fasted, N=6
[7] = MAD Cohort 3, 750 mg q12 h 7 days, fasted, N=6
[8] = MAD Cohort 4, 500 mg 14 days, fed, N=6
[9] = MAD Cohort 5, 1000 mg 14 days, fed, N=6

In the case of CCNC(=O)Nc1nc2cc(-c3cnc(C(C)(C)OP(=O)(O)O)cn3)c(F)c([C@H]3CCCO3)c2[nH]1 [SPR720, fobrepodacin], the “Incidence of TEAE: Diarrhea” value ([1]; SAD 500 mg Elderly, N=6) is reported as 0 Number (%) of Subjects, the “Incidence of TEAE: Headache” value ([1]; SAD 500 mg Elderly, N=6) is reported as 0 Number (%) of Subjects and the “Incidence of TEAE: Nausea” value ([1]; SAD 500 mg Elderly, N=6) is reported as 0 Number (%) of Subjects. The “Incidence of TEAE: Vomiting” value ([1]; SAD 500 mg Elderly, N=6) was 0 Number (%) of Subjects, the “Subjects reporting TEAEs” value ([1]; SAD 1500 mg cohort) was 66.7% and the “Subjects reporting TEAEs” value ([1]; SAD 2000 mg cohort) was 100%. For the same compound, the “Incidence of TEAE: Diarrhea” value ([1]; SAD Cohort 1, 100 mg, N=6) was 0 Number (%) of Subjects, the “Incidence of TEAE: Headache” value ([1]; SAD Cohort 1, 100 mg, N=6) was 0 Number (%) of Subjects and the “Incidence of TEAE: Nausea” value ([1]; SAD Cohort 1, 100 mg, N=6) was 0 Number (%) of Subjects. The “Incidence of TEAE: Vomiting” value ([1]; SAD Cohort 1, 100 mg, N=6) was 0 Number (%) of Subjects, the “Incidence of TEAE: Diarrhea” value ([1]; SAD Cohort 2, 250 mg, N=6) was 0 Number (%) of Subjects and the “Incidence of TEAE: Headache” value ([1]; SAD Cohort 2, 250 mg, N=6) was 0 Number (%) of Subjects. For the same compound, the “Incidence of TEAE: Nausea” value ([1]; SAD Cohort 2, 250 mg, N=6) was 0 Number (%) of Subjects, the “Incidence of TEAE: Vomiting” value ([1]; SAD Cohort 2, 250 mg, N=6) was 0 Number (%) of Subjects and the “Incidence of TEAE: Diarrhea” value ([1]; SAD Cohort 3, 500 mg, N=6) was 1 (16.7) Number (%) of Subjects. The “Incidence of TEAE: Headache” value ([1]; SAD Cohort 3, 500 mg, N=6) was 0 Number (%) of Subjects, the “Incidence of TEAE: Nausea” value ([1]; SAD Cohort 3, 500 mg, N=6) was 0 Number (%) of Subjects and the “Incidence of TEAE: Vomiting” value ([1]; SAD Cohort 3, 500 mg, N=6) was 0 Number (%) of Subjects. For the same compound, the “Incidence of TEAE: Diarrhea” value [1, 4] was 0 Number (%) of Subjects, the “Incidence of TEAE: Headache” value [1, 4] was 1 (16.7) Number (%) of Subjects and the “Incidence of TEAE: Nausea” value [1, 4] was 0 Number (%) of Subjects. For the same compound, the “Incidence of TEAE: Vomiting” value [1, 4] was 0 Number (%) of Subjects, the “Incidence of TEAE: Diarrhea” value ([1]; SAD Cohort 4, 1000 mg Fed, N=6) was 0 Number (%) of Subjects and the “Incidence of TEAE: Headache” value ([1]; SAD Cohort 4, 1000 mg Fed, N=6) was 0 Number (%) of Subjects. For the same compound, the “Incidence of TEAE: Nausea” value ([1]; SAD Cohort 4, 1000 mg Fed, N=6) was 0 Number (%) of Subjects, the “Incidence of TEAE: Vomiting” value ([1]; SAD Cohort 4, 1000 mg Fed, N=6) was 0 Number (%) of Subjects and the “Incidence of TEAE: Diarrhea” value ([1]; SAD Cohort 5, 1500 mg, N=6) was 0 Number (%) of Subjects. The “Incidence of TEAE: Headache” value ([1]; SAD Cohort 5, 1500 mg, N=6) was 3 (50.0) Number (%) of Subjects, the “Incidence of TEAE: Nausea” value ([1]; SAD Cohort 5, 1500 mg, N=6) was 4 (66.7) Number (%) of Subjects and the “Incidence of TEAE: Vomiting” value ([1]; SAD Cohort 5, 1500 mg, N=6) was 3 (50.0) Number (%) of Subjects. The “Incidence of TEAE: Diarrhea” value ([1]; SAD Cohort 6, 2000 mg, N=6) was 2 (33.3) Number (%) of Subjects, the “Incidence of TEAE: Headache” value ([1]; SAD Cohort 6, 2000 mg, N=6) was 3 (50.0) Number (%) of Subjects and the “Incidence of TEAE: Nausea” value ([1]; SAD Cohort 6, 2000 mg, N=6) was 5 (83.3) Number (%) of Subjects. The “Incidence of TEAE: Vomiting” value ([1]; SAD Cohort 6, 2000 mg, N=6) was 5 (83.3) Number (%) of Subjects, the “Incidence of TEAE: Diarrhea” value ([1]; SAD Overall SPR720, n=42) was 3 (7.1) Number (%) of Subjects and the “Incidence of TEAE: Headache” value ([1]; SAD Overall SPR720, n=42) was 7 (16.7) Number (%) of Subjects. The “Incidence of TEAE: Nausea” value ([1]; SAD Overall SPR720, n=42) was 9 (21.4) Number (%) of Subjects, the “Incidence of TEAE: Vomiting” value ([1]; SAD Overall SPR720, n=42) was 8 (19.0) Number (%) of Subjects and the “Subjects reporting TEAEs” value ([1]; SAD overall, 18 of 42 subjects) was 42.9%. For the same compound, the “Total number of TEAEs reported” value ([1]; SAD overall, 42 subjects) was 35, the Serious adverse events ([1]; SAD study) was “No serious adverse events” and the “Severity of TEAEs” value ([1]; SAD, all TEAEs) was “mild or moderate”. The “Food effect: plasma exposure after high fat meal relative to fasted state” value [2] was “no significant food effect”, the “Subjects reporting TEAEs” value ([3]; MAD 1000 mg cohorts) was 50.0% and the “Subjects reporting TEAEs” value ([3]; MAD 1500 mg (750 mg q12h) cohort) was 66.7%. For the same compound, the “Incidence of TEAE: Abdominal Pain” value [3, 5] was 0 Number (%) of Subjects, the “Incidence of TEAE: Diarrhea (first line)” value [3, 5] was 2 (33.3) Number (%) of Subjects and the “Incidence of TEAE: Diarrhea (second line)” value (shortened to “Incidence … (second line)”) [3, 5] was 0 Number (%) of Subjects. The “Incidence of TEAE: Headache” value [3, 5] was 2 (33.3) Number (%) of Subjects, the “Incidence of TEAE: Nausea” value [3, 5] was 2 (33.3) Number (%) of Subjects and the “Incidence of TEAE: Vomiting” value [3, 5] was 1 (16.7) Number (%) of Subjects. For the same compound, the “Incidence of TEAE: Abdominal Pain” value [3, 6] was 1 (16.7) Number (%) of Subjects, the “Incidence of TEAE: Diarrhea (first line)” value [3, 6] was 4 (66.7) Number (%) of Subjects and the “Incidence … (second line)” value [3, 6] was 2 (33.3) Number (%) of Subjects. The “Incidence of TEAE: Headache” value [3, 6] was 3 (50.0) Number (%) of Subjects, the “Incidence of TEAE: Nausea” value [3, 6] was 1 (16.7) Number (%) of Subjects and the “Incidence of TEAE: Vomiting” value [3, 6] was 2 (33.3) Number (%) of Subjects. The “Incidence of TEAE: Abdominal Pain” value [3, 7] was 0 Number (%) of Subjects, the “Incidence of TEAE: Diarrhea (first line)” value [3, 7] was 4 (66.7) Number (%) of Subjects and the “Incidence … (second line)” value [3, 7] was 1 (16.7) Number (%) of Subjects. For the same compound, the “Incidence of TEAE: Headache” value [3, 7] was 2 (33.3) Number (%) of Subjects, the “Incidence of TEAE: Nausea” value [3, 7] was 3 (50.0) Number (%) of Subjects and the “Incidence of TEAE: Vomiting” value [3, 7] was 1 (16.7) Number (%) of Subjects. The “Incidence of TEAE: Abdominal Pain” value [3, 8] was 0 Number (%) of Subjects, the “Incidence of TEAE: Diarrhea (first line)” value [3, 8] was 0 Number (%) of Subjects and the “Incidence … (second line)” value [3, 8] was 0 Number (%) of Subjects. For the same compound, the “Incidence of TEAE: Headache” value [3, 8] was 1 (16.7) Number (%) of Subjects, the “Incidence of TEAE: Nausea” value [3, 8] was 0 Number (%) of Subjects and the “Incidence of TEAE: Vomiting” value [3, 8] was 0 Number (%) of Subjects. The “Incidence of TEAE: Abdominal Pain” value [3, 9] was 1 (16.7) Number (%) of Subjects, the “Incidence of TEAE: Diarrhea (first line)” value [3, 9] was 3 (50.0) Number (%) of Subjects and the “Incidence … (second line)” value [3, 9] was 0 Number (%) of Subjects. The “Incidence of TEAE: Headache” value [3, 9] was 0 Number (%) of Subjects, the “Incidence of TEAE: Nausea” value [3, 9] was 1 (16.7) Number (%) of Subjects and the “Incidence of TEAE: Vomiting” value [3, 9] was 0 Number (%) of Subjects. The “Subjects who discontinued study drug due to increased pancreatic enzymes” value ([3]; MAD cohort 3 (750 mg q12h), asymptomatic, resolved without interventional treatment) was “One”, the “Subjects reporting TEAEs” value ([3]; MAD overall, 18 of 30 subjects who received SPR720) was 60.0% and the “Total number of TEAEs reported” value ([3]; MAD overall, 30 subjects) was 101. The Serious adverse events ([3]; MAD study) was “No serious adverse events”, the “Severity of TEAEs” value ([3]; MAD, all TEAEs) was “mild or moderate” and the “Incidence of TEAE: Abdominal Pain” value ([3]; Overall MAD SPR720, N=30) was 2 (6.7) Number (%) of Subjects. For the same compound, the “Incidence of TEAE: Diarrhea (first line)” value ([3]; Overall MAD SPR720, N=30) was 13 (42.3) Number (%) of Subjects, the “Incidence … (second line)” value ([3]; Overall MAD SPR720, N=30) was 3 (10.0) Number (%) of Subjects and the “Incidence of TEAE: Headache” value ([3]; Overall MAD SPR720, N=30) was 8 (26.7) Number (%) of Subjects. For the same compound, the “Incidence of TEAE: Nausea” value ([3]; Overall MAD SPR720, N=30) was 7 (23.3) Number (%) of Subjects, the “Incidence of TEAE: Vomiting” value ([3]; Overall MAD SPR720, N=30) was 4 (13.3) Number (%) of Subjects and the “Cases of Hy's Law” value ([3]; over 14 days of dosing) was “no cases”. For the same compound, the “Elevations in ALT” value ([3]; over 14 days of dosing, slight, asymptomatic and reversible) was under 3 ×ULN and the Tolerability ([3]; repeat daily oral doses up to 1000 mg over maximum duration of 14 days) was “well-tolerated”.
